Active and inactive are the calls of the source.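 The calls were made as follows: active = compounds giving half or more protection of infected cells from virus-caused growth loss, again on retest; inactive = the rest.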
Tested on: CEM cells HIV-1 protection, formazan growth assay
Experiment: NCI AIDS Antiviral Assay
Details: for IC50: measured here: growth of uninfected CEM cells
Outline: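 Steps: treat uninfected and HIV-1-infected human CEM cells at five drug levels; quantify growth by soluble formazan; retest any compound reaching 50% protection; classify actives from the retest.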

Structure (SMILES)	EC50 [µM]	IC50 [µM]	outcome
CC12CC1C(c1cccc([N+](=O)[O-])c1)(c1cccc([N+](=O)[O-])c1)N=N2 (configuration not stated)	> 200	13.5	–
CCOC(=O)C1C/C(C)=C(/C)SCCCS1 (configuration not stated)	> 200	45.7	–
O=C1CSC(/C(=C/c2ccccc2)c2nc3ccccc3[nH]2)=N1	21.9	22.4	–
Cc1nc2ccccc2c(=O)n1-c1ccccc1I	> 100	> 100	–
OC(Cc1cc(CC(O)(C(F)(F)F)C(F)(F)F)nc(CC(O)(C(F)(F)F)C(F)(F)F)c1)(C(F)(F)F)C(F)(F)F	> 200	1.02	–
CC(=O)Nc1ccc(S(=O)(=O)Nc2ccc(S(=O)(=O)c3ccc(NC(=O)c4ccccc4SSc4ccccc4C(=O)Nc4ccc(S(=O)(=O)c5ccc(NS(=O)(=O)c6ccc(NC(C)=O)cc6)cc5)cc4)cc3)cc2)cc1	24	> 100	–
O=C1CC2O[C@H](c3ccccc3)OC2CO1 (some centres not stated)	> 200	93.3	–
COc1ccc(P2(=S)Oc3ccc(C(c4ccccc4)(c4ccccc4)c4ccccc4)cc3O2)cc1 (configuration not stated)	–	–	inactive
O=C(CC1=Nc2nnc(-c3nnc4n3C(=O)C(CC(=O)C3CC3)=N4)n2C1=O)C1CC1	> 24.5	> 24.5	–
O=C(O)CCc1c2ccc(=O)c(O)c-2oc2c(O)c(O)ccc12	85.1	102	–
O=C1CCC2(CCC(=O)NC2=O)C(=O)N1	> 1200	> 1200	–
O=C(/C=C\c1ccccc1O)c1ccc(O)cc1O	> 72.4	7.24	–
O=C1NC(=S)N/C1=C\c1cccs1	> 200	182	–
CC(=O)N1CN2C(=O)CCC2c2cc(C)ccc21 (configuration not stated)	–	–	inactive
C[C@H]1O[C@@H](c2c(O)ccc3ccccc23)C[C@@H](N(C)C)C1O (some centres not stated)	> 200	97.7	–
C=C(C(=C)N1N=NC2C3CCC(C3)C21)N1N=NC2C3CCC(C3)C21 (configuration not stated)	> 2.34	> 2.34	–
CN(C)CCC(/C=C/c1ccccc1)=N\Nc1ccc(Cl)cc1Cl	–	–	inactive
COc1cc(/C=C(\NC(=O)c2ccccc2)c2nc3ncncc3[nH]2)cc(OC)c1OC	–	–	inactive
O=C(O)c1cc2c(cc1CC(Cc1ccc3c(c1)CCCC3)C(=O)O)CCCC2 (configuration not stated)	> 200	51.3	–
c1ccc2[nH]c(-c3nc4ccccc4o3)nc2c1	> 15.8	> 15.8	–
O=C1CCCC/C1=C1\C(=O)Nc2cc(F)ccc21	> 1020	107	–

Structure (SMILES)	EC50 [µM]	IC50 [µM]	outcome
O=c1[nH]c2nccn2c(Cl)c1Br	> 200	33.9	–
NC(=O)C(CSSCC(NC(=O)OCc1ccccc1)C(N)=O)NC(=O)OCc1ccccc1 (configuration not stated)	> 200	18.2	–
O=c1[nH]nc(Cc2ccccc2)n1Nc1ccccc1	> 200	> 200	–
CCCCCC1OC1C/C=C\CCCCCCCC(=O)OCC(O)COC(=O)CCCCCCC/C=C\CC1OC1CCCCC (configuration not stated)	> 200	> 200	–
CC1(C)CCc2cc3c(cc2O1)OCCC3=O	–	–	inactive
Cn1c2ccccc2c(=NNc2ccc(S(N)(=O)=O)cc2)c2ccccc21	> 200	17.4	–
Cn1c(=O)c2nc(-c3ccc(Cl)c(Cl)c3)c(-c3ccc(Cl)c(Cl)c3)nc2n(C)c1=O	> 200	29.5	–
CC1(C)CNC[C@@]2(C)OCCOCCOCCO[C@@]3(C)CNCC(C)(C)NC(=O)[C@](C)(CNCC(C)(C)NC3=O)OCCOCCOCCO[C@](C)(CNCC(C)(C)NC2=O)C(=O)N1	> 200	> 200	–
CCOC(=O)c1c(NC(=S)NCc2ccccc2)sc2c1CCN(C)C2	> 151	95.5	–
COc1ccc(C(=O)O)c(Cc2ccc3ccccc3c2)c1	–	–	inactive
O=C(O)/C=C/C(=O)NNC(=O)/C=C/C(=O)O	> 1100	692	–
CN(C)/N=C(/c1nc2ccc(Cl)cc2[nH]c1=O)C(O)c1ccc(C(O)/C(=N\N(C)C)c2nc3ccc(Cl)cc3[nH]c2=O)cc1 (configuration not stated)	> 389	24	–
C=C[C@@H]1c2ccccc2C=C[C@]12C=CC(=O)CC2	> 57.5	21.9	–
C=CCN1C(=O)CC(=O)N(NC2=NNC3(C(=O)N2)c2ccccc2-c2ccccc23)C1=S	> 200	79.4	–
CN1C(=O)N(C)C(=O)C(Nc2ccc([N+](=O)[O-])cc2)(SCCO)C1=O	97.7	363	–
COC1/C=C/OC2(C)Oc3c(C)c(O)c4c(O)c(c(C=Nc5cccc(C)c5)c(O)c4c3C2=O)NC(=O)C(C)=C/C=C/C(C)C(O)C(C)C(O)C(C)C(OC(C)=O)C1C (configuration not stated)	> 174	28.8	–
CCC1CC2CN3CCc4c([nH]c5c(-c6c(OC)ccc7c8c([nH]c67)[C@]6(C(=O)OC)CC7CC(CC)C6N(CC8)C7)c(O)ccc45)[C@](C(=O)OC)(C2)C13 (some centres not stated)	> 200	12.9	–
CC(C)(C)CP(=S)(CC(C)(C)C)CC(C)(C)C	> 117	> 117	–
CCOC(=O)c1nn(Cc2ccccc2)c(=S)[nH]c1=O	–	123	inactive
O=C(c1ccccc1)N1C2CCC1C(C(F)(F)F)=C2C(F)(F)F	–	–	inactive
C=C1[C@@H]2CC[C@@]3([C@@H](C2)[C@@]24CCC[C@@]5(C)CN(CCO)[C@@H]2O[C@@H]3C[C@H]54)[C@@H]1O	–	–	inactive

Structure (SMILES)	EC50 [µM]	IC50 [µM]	outcome
CSC(=S)c1ccc(C(=S)SC)cc1	–	–	inactive
CCOC(=O)C1(C(=O)OCC)COS(=O)OC1	> 186	97.7	–
CC(=O)OCC1OC(n2c(C)c(C(C)=O)c(-c3cccc4ccccc34)c(C#N)c2=S)C(OC(C)=O)C(OC(C)=O)C1OC(C)=O (configuration not stated)	> 200	112	–
CCCCCCCC(=O)[O-].CCCCCCCC(=O)[O-].N.N.N.N.[Co+3].[O-][Cl+3]([O-])([O-])[O-]	–	–	inactive
CN=c1ss/c(=N\C(=S)N(C)C)n1C	–	–	inactive
C=CC1=C(C)C2=NC1=CC1=NC(=CC3=C(C)C4=C(O)C(C(=O)OC)C(=C5NC(=C2)C(C)C5CCC(=O)OC/C=C(\C)CCCC(C)CCCC(C)CCCC(C)C)C4=N3)C(CC)=C1C (configuration not stated)	> 100	2.14	–
CN(C)c1ccc(/C=C2\CCc3ccccc3C2=O)cc1	> 9.77	5.5	–
O=C1CC2(CCNCC2)C(=O)N1N1CCCC1	> 200	> 200	–
Cc1onc(-c2c(F)cccc2Cl)c1C(=O)Nc1cc2cc([N+](=O)[O-])ccc2oc1=O	> 50.1	> 50.1	–
CCC[CH2][Sn]1([CH2]CCC)[O]N=Cc2ccccc2[O]1	> 14.1	0.437	–
C/C=C(\C)C(=O)O[C@@H]1CC[C@]2(CO2)C2(COC(C)=O)C(OC(C)=O)CC(C)[C@](C)(C[C@H](O)C3=CC(=O)OC3)[C@@H]12 (some centres not stated)	–	–	inactive
O=c1[nH]c(=O)n(COCCO)c2ccc(Br)cc12	> 200	> 200	–
COc1cc(C(C#N)NNc2nc(C)cc(=O)[nH]2)cc(OC)c1OC (configuration not stated)	> 105	> 105	–
O=C(O)c1ccccc1Sc1ccc(C=C2NC(=S)N(c3ccccc3)C2=O)s1	> 200	97.7	–
O=C(NC(=O)c1cn(C2OC(CO)C(O)C2O)c(=O)[nH]c1=O)OCc1ccccc1 (configuration not stated)	> 589	> 589	–
Nc1nnc(Sc2ccc([N+](=O)[O-])cc2)s1	> 195	11.7	–
Cc1ccc(S(=O)(=O)OI(O)CC(F)(F)F)cc1	> 200	> 200	–
Cc1cc(C)nc(NS(=O)(=O)c2ccc(NC(=O)NC(F)(F)F)cc2)n1	> 200	> 200	–
CNC(=O)OCc1nc(SC)n(C)c1COC(=O)NC	> 708	309	–
COc1cc(/C=C(\C#N)c2ccccc2)cc(OC)c1	> 19.5	> 19.5	–
N#C/C(=C\NC(N)=S)C(=O)c1ccc2ccccc2c1	–	–	inactive

Structure (SMILES)	EC50 [µM]	IC50 [µM]	outcome
C[N+]1(C)C/C(=C\C=C\c2ccccc2)C(=O)/C(=C/C=C/c2ccccc2)C1	> 7.76	> 7.76	–
O=C(C(Cl)=C(N1CCOCC1)N1CCOCC1)C(Cl)Cl	> 200	112	–
NC(=O)c1cc(O)c(O)c(O)c1	> 200	17	–
O=C1C(=O)N(C2C3CC4CC(C3)CC2C4)C(=O)C(=O)C1c1nc2ccccc2o1 (configuration not stated)	> 91.2	52.5	–
COc1cc(C(=O)[O][Sn]([c]2ccccc2)([c]2ccccc2)[c]2ccccc2)cc(OC)c1OC	> 200	0.0631	–
Cc1c2c(C(N)=O)nccc2c(C)c2c1c1ccccc1n2Cc1ccccc1	–	–	inactive
O=C(O)/C=C/n1c2ccccc2c(=O)c2ccccc21	> 70.8	> 70.8	–
O=C1OC2C=CC1C1(CCOC1=O)C2 (configuration not stated)	> 200	> 200	–
OCC[P+](c1ccccc1)(c1ccccc1)c1ccccc1	> 200	12.3	–
CC12SC(C)(c3c[se]cc31)C1C(=O)N(c3ccccc3)C(=O)C12 (configuration not stated)	–	–	inactive
COc1ccc2c(c1)C(=O)Cc1ccccc1CC2	> 39.8	> 39.8	–
Cc1cc(N(CCC#N)CCC#N)ccc1/C=C1N=C(/C=C\c2ccccc2)N(c2ccc(Cl)cc2)C\1=O	–	–	inactive
CCOc1ccc(NC(=O)C(=O)CC(=O)c2c(C)n([O-])c3ccccc3[n+]2=O)cc1	> 6.61	> 6.61	–
CC(C)(C)C(=O)C1CC(=O)c2ccccc2C1=O (configuration not stated)	> 29.5	> 29.5	–
COc1ccc(Br)c2c1CC(C(=O)O)CC2 (configuration not stated)	> 457	234	–
CC(=O)OCC1OC(n2c(-c3ccccc3)c(N=Nc3ccccc3)c(C)c(C#N)c2=S)C(OC(C)=O)C(OC(C)=O)C1OC(C)=O (configuration not stated)	> 200	> 200	–
NC(N)=NCCCC(Nc1c2ccccc2nc2ccccc12)C(=O)O (configuration not stated)	–	–	inactive
Cc1ccc2cccc3c2c1CC1(C3=O)S(=O)(=O)OCCOS1(=O)=O	> 200	> 200	–
c1ccc(-c2nnc(-c3nn(-c4ccccc4)c4nc5ccccc5nc34)o2)cc1	–	–	inactive
CC12C(=O)N(CCN)C(=O)C1C1c3ccccc3C2c2ccccc21 (configuration not stated)	–	–	inactive

Source: PubChem BioAssay AID179 (DTP/NCI, 2004)
